From patent US20090097026A1, “COLOR MEASUREMENTS OF RECONSTITUTED TIGECYCLINE AND DEGRADANT THEREOF” (Wyeth, priority 2007, published 2009) come the findings set out here.

The nature of data set [1]: Color value of reconstituted tigecycline and tigecycline API spiked with Compound I. The note with it: spiked into reconstituted tigecycline and tigecycline API; visual observation. The class given is physicochemical. The procedure: The spiking concentrations required to produce a clear color change in tigecycline (tigecycline for injection 50 mg/vial (lactose formulation)) was characterized using both a Hunterlab UltraScan XE color spectrophotometer and a quantitative HPLC method. The threshold for visual green color resulting from spiking with Compound I colored degradant was determined for each category of tigecycline samples. An excellent linear correlation (R>0.99) between the concentration of Compound I and the calculated color value is observed. The spiking of tigecycline with ca. 0.045 concentration Compound I results in observation of a slightly green color in the reconstituted tigecycline and tigecycline API. This green color is more pronounced at the higher Compound I concentration. Tables 1, 2, 3 and 4 summarize the calculated color values and HPLC results for tigecycline Registration stability batches (CR0040-50-01, CR0040-50-02, CR0040-50-03), validation stability batches (B41133, B41404, B41710) and API used in the validation stability batches (3000002665, 2000140691, 2000140693). As per the color methods employed the calculated color value is calculated from the measured CIEL*a*b* values using the equation below:
Calculated Color Value=2.19×L*+2.59×a*−0.48×b*
The samples were tested immediately after reconstitution according to the label directions (5.3 ml of 0.9% saline). […]

Data set [2] is described as follows: Stability / oxidative degradation observations. The data set is classed as physicochemical. Particulars: result in words. The source says:
Compound I was isolated from forced degradation samples of tigecycline and is unstable. This blue compound was characterized by LC-MS/MS and NMR as an iminoquinone derivative of tigecycline, an oxidative degradant with a positive ionic formula of C29H38N5O10 formed when tigecycline is exposed to air for twenty-four hours. A linear correlation (R>0.99) between the concentration of Compound I and the calculated color value was discovered. In substantially pure form, Compound I is useful as a test standard for determining the concentration of Compound I in a sample of Tigecycline. Compound I may be obtained in substantially pure form from the compound Tygecycline according to the following method: Tygecycline is degraded at room temperature by dissolving it in water open to air and stirring for a few hours until the solution changes color from yellow/orange to dark green. […]
Compound I was studied by NMR spectroscopy as well. […] A highly intense singlet peak at δH 3.59 was assigned to methyl protons of the C-7 dimethyl amino group, and their associated carbons were detected at δC 47.1 in the HSQC spectrum. […]

Take `CN(C)c1c(O)c(C(N)=O)c(O)c(O)c1C[C@H]1C(C(=O)O)=C(O)C2=C(C(=[N+](C)C)C=C(NC(=O)CNC(C)(C)C)C2=O)[C@@H]1O` [Compound I]: the “concentration of Compound I that results in a slightly green color” value in data set [1] is “ca. 0.045”.
For `CN(C)c1cc(NC(=O)CNC(C)(C)C)c(O)c2c1C[C@H]1C[C@H]3[C@H](N(C)C)C(O)=C(C(N)=O)C(=O)[C@@]3(O)C(O)=C1C2=O` [tigecycline], the stability result in data set [2] was “susceptible to oxidative degradation”.
